Data: ChEMBL document CHEMBL1177687, “Synthesis and CYP24A1 inhibitory activity of N-(2-(1H-imidazol-1-yl)-2-phenylethyl)arylamides” (Bioorg Med Chem, 2010)

Each compound was assayed against T1, 1,25-dihydroxyvitamin D(3) 24-hydroxylase, mitochondrial (Homo sapiens, UniProt Q07973) (assay: Inhibition of CYP24A1).
T1 sequence (Q07973 whole entry): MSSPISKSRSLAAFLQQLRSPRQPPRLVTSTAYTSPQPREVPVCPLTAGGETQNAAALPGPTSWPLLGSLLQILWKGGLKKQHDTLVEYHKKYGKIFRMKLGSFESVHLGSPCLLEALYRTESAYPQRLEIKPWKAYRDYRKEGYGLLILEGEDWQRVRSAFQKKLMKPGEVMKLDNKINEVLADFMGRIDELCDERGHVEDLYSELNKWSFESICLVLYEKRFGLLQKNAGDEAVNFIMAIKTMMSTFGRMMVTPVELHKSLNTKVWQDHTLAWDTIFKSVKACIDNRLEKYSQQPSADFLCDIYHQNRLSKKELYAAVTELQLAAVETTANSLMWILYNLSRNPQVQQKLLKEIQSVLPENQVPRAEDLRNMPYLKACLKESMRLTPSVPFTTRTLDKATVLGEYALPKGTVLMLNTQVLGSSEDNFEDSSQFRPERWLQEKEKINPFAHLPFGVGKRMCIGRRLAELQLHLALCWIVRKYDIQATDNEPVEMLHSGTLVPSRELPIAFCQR
Type: ADME

| IC50 | SMILES |
| --- | --- |
| 0.0151 µM | O=C(NC[C@@H](c1ccccc1)n1ccnc1)c1ccc(-c2ccc(Cl)cc2)cc1 |

These compounds were tested against T1, 1,25-dihydroxyvitamin D(3) 24-hydroxylase, mitochondrial (assay: Inhibition of human recombinant CYP24A1 expressed in chinese hamster V79 cells using [3H-1-beta]calcitriol after 60 mins by scintillation counting).
Type: ADME, cell-based

| SMILES | IC50 |
| --- | --- |
| O=C(NCC(c1ccccc1)n1ccnc1)c1ccc(Br)cc1 (centres undefined) | 23 µM |
| O=C(NCC(c1ccccc1)n1ccnc1)c1ccc(Cc2ccccc2)cc1 (centres undefined) | 72 µM |
| O=C(NCC(c1ccccc1)n1ccnc1)c1ccc(/C=C/c2ccccc2)cc1 (centres undefined) | 0.3 µM |
| O=C(NCC(c1ccccc1)n1ccnc1)c1cc2cc([N+](=O)[O-])ccc2o1 (centres undefined) | 6.4 µM |

Next, values leading:

| IC50 | SMILES |
| --- | --- |
| 10.6 µM | O=C(NCC(c1ccc(Cl)cc1)n1ccnc1)c1cc2ccccc2o1 (centres undefined) |
| 4 µM | O=C(NCC(c1ccccc1)n1ccnc1)c1cc2ccccc2o1 (centres undefined) |
| 36.9 µM | COc1ccc2cc(C(=O)NCC(c3ccccc3)n3ccnc3)oc2c1 (centres undefined) |
| 2.8 µM | O=C(NCC(c1ccc(F)cc1)n1ccnc1)c1cc2ccccc2o1 (centres undefined) |
